How the values were obtained:
[1] = logP determination by HPLC on reverse-phase column (C 18), EEC Directive 79/831 Annex V.A8; type: physicochemical; conditions: reverse-phase HPLC column (C 18), pH 2.3, HPLC, 0.1% aqueous phosphoric acid/acetonitrile, 43° C.
Protocol: The logP values given in the Tables and Preparation Examples above are determined in accordance with EEC Directive 79/831 Annex V.A8 by HPLC (High Performance Liquid Chromatography) on a reverse-phase column (C 18). Temperature: 43° C.
The determination is carried out in the acidic range at pH 2.3 using the mobile phases 0.1% aqueous phosphoric acid and acetonitrile; linear gradient from 10% acetonitrile to 90% acetonitrile.
Calibration is carried out using unbranched alkan-2-ones (having 3 to 16 carbon atoms) with known logP values (determination of the logP values by the retention times using linear interpolation between two successive alkanones).

Venturia inaequalis = experiment: Venturia test (apple)/protective; type: in vivo; conditions: apple plants, protective spray, application rate 100 ppm, evaluation 10 days after inoculation
Protocol: (§1) To produce a suitable preparation of active compound, 1 part by weight of active compound is mixed with the stated amounts of solvents and emulsifier, and the concentrate is diluted with water to the desired concentration.
(§2) To test for protective activity, young plants are sprayed with the active compound preparation at the stated application rate. After the spray coating has dried on, the plants are inoculated with an aqueous conidia suspension of the apple scab pathogen Venturia inaequalis and then remain in an incubation cabin at about 20° C. and 100% relative atmospheric humidity for 1 day. The plants are then placed in a greenhouse at about 21° C. and a relative atmospheric humidity of about 90%.
(§3) Evaluation is carried out 10 days after the inoculation. 0% means an efficacy which corresponds to that of the control, whereas an efficacy of 100% means that no infection is observed.

Botrytis cinerea = experiment: Botrytis test (bean)/protective; type: in vivo; conditions: bean plants, protective spray, application rate 100 ppm, evaluation 2 days after inoculation
Protocol: as §1
To test for protective activity, young plants are sprayed with the active compound preparation at the stated application rate. After the spray coating has dried on, 2 small pieces of agar colonized by Botrytis cinerea are placed onto each leaf. The inoculated plants are placed in a dark chamber at about 20° C. and 100% relative atmospheric humidity.
The size of the infected areas on the leaves is evaluated 2 days after the inoculation. 0% means an efficacy which corresponds to that of the control, whereas an efficacy of 100% means that no infection is observed.

Uromyces appendiculatus = experiment: Uromyces test (bean)/protective; type: in vivo; conditions: bean plants, protective spray, application rate 100 ppm, evaluation 10 days after inoculation
Protocol: as §1
as §2, with “spore” for “conidia”, “bean rust” for “apple scab”, “Uromyces appendiculatus” for “Venturia inaequalis”
as §3

Puccinia recondita = experiment: Puccinia test (wheat)/protective; type: in vivo; conditions: wheat plants, protective spray, application rate 1000 ppm, evaluation 10 days after inoculation
Protocol: To produce a suitable preparation of active compound, 1 part by weight of active compound is mixed with the stated amounts of solvent and emulsifier, and the concentrate is diluted with water to the desired concentration.
To test for protective activity, young plants are sprayed with the active compound preparation at the stated application rate. After the spray coating has dried on, the plants are sprayed with a conidia suspension of Puccinia recondita. The plants remain in an incubation cabin at 20° C. and 100% relative atmospheric humidity for 48 hours.
The plants are then placed in a greenhouse at a temperature of about 20° C. and a relative atmospheric humidity of 80% to promote the development of rust pustules.
as §3

Structure (SMILES): COC(=O)c1ccc(-c2cc(F)ccc2NC(=O)c2cn(C)nc2C(F)(F)F)cc1F [No. 1, methyl 3,5′-difluoro-2′-({[1-methyl-3-(trifluoromethyl)-1H-pyrazol-4-yl]carbonyl}amino)biphenyl-4-carboxylate]
- chromatographic logP ([1]; compounds of formula (I)): 2.64

Structure (SMILES): COC(=O)c1ccc(-c2cc(F)ccc2N)cc1F [No. 9 (III), methyl 2′-amino-3,5′-difluorobiphenyl-4-carboxylate]
- chromatographic logP ([1]; starting materials of formula (III)): 2.73

Structure (SMILES): COC(=O)c1ccc(-c2cc(F)ccc2NC(=O)c2cn(C)nc2C(F)F)cc1F [drawing 30]
- Efficacy in % (Venturia inaequalis): 71%

Structure (SMILES): COC(=O)c1ccc(-c2cc(F)ccc2NC(=O)c2cn(C)nc2C(F)(F)F)cc1F [drawing 31]
- Efficacy in % (Botrytis cinerea): 78%

Structure (SMILES): COC(=O)c1ccc(-c2cc(F)ccc2NC(=O)c2cn(C)nc2C(F)(F)F)cc1F [drawing 32]
- Efficacy in % (Uromyces appendiculatus): 93%

Structure (SMILES): COC(=O)c1ccc(-c2cc(F)ccc2NC(=O)c2cn(C)nc2C(F)F)cc1F [drawing 33]
- Efficacy in % (Uromyces appendiculatus): 78%

Structure (SMILES): COC(=O)c1ccc(-c2cc(F)ccc2NC(=O)c2cn(C)nc2C(F)(F)F)cc1F [drawing 34]
- Efficacy in % (Puccinia recondita): 100%

Structure (SMILES): COC(=O)c1ccc(-c2cc(F)ccc2NC(=O)c2cn(C)nc2C(F)F)cc1F [drawing 35]
- Efficacy in % (Puccinia recondita): 90%
